{"source": "patent US20160311911A1", "about": "“METHODS FOR TREATING ALLERGIC AIRWAY INFLAMMATION” (priority 2015, published 2016)", "key": {"IgE": {"system": "IgE", "sequence (P01854 1-428 isoform P01854-1)": "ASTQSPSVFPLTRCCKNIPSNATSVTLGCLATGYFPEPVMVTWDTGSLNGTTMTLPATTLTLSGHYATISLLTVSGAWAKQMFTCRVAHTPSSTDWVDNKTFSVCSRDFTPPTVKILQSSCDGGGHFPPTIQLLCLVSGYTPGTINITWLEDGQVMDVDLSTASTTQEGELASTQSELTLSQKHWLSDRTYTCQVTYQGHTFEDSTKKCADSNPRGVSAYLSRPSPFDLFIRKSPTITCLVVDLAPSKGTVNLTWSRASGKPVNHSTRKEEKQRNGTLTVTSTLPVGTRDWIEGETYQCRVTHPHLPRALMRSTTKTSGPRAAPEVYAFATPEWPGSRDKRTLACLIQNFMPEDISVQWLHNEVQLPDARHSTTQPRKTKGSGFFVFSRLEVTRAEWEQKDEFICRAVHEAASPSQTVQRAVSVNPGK", "details": "reference 20; cited from earlier work"}, "NF-κB": {"system": "NF-κB", "test": "RWPE single-challenge model after intranasal NF-κB inhibitor", "type": "in vivo", "details": "WT mice; intranasal 1 hour before RWPE; BAY 11-7082 10 mg/kg, NEMO-binding domain binding peptide 25 per mouse; 16 hours", "experimental": "WT mice were intranasally challenged with a single dose of RWPE or CDE (100 μg/60 μL) and euthanized after 16 hours. In additional experiments, 1 hour before RWPE challenge, WT mice were treated with or without intranasal administration of a nuclear factor κB (NF-κB) inhibitor that selectively irreversibly blocks IκBα phosphorylation with BAY 11-7082 (10 mg/kg body weight; Calbiochem, San Diego, Calif.) (13) or NEMO-binding domain binding peptide (25 per mouse, Calbiochem) (14). These treated mice were challenged with RWPE and euthanized, as described above. Total and differential bronchoalveolar lavage fluid (BALF) cell counts were performed (16). Lungs were perfused and fixed with Zn fixative (BD Biosciences, San Jose, Calif.), and sections were stained with periodic acid-Schiff for mucus staining."}, "CXCR2 [1]": {"target": "T1, CXCR2 (Mus musculus, UniProt P35343)", "T1 construct": "endogenous in cells; host or cells: wild-type mice in vivo (receptor on neutrophils)", "T1 sequence (P35343 1-359)": "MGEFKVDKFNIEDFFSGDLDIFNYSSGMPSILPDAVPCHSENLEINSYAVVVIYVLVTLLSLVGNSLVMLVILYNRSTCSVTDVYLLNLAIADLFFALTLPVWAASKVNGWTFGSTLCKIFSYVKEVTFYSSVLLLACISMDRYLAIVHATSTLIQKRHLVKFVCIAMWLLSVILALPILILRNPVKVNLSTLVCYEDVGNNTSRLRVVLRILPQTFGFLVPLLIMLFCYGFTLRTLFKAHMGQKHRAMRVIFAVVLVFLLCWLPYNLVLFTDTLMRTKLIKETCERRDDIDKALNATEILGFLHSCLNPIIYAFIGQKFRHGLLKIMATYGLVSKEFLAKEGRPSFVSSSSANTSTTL", "test": "RWPE single-challenge model with CXCR2 inhibitor: BALF cell counts", "type": "in vivo", "details": "WT mice", "experimental": "WT mice and Tlr4 KO mice were intranasally challenged with a single dose of 100 μg/60 μl RWPE reconstituted from lyophilized RWPE (Greer Laboratories, Lenoir, N.C.) and killed after 0.5, 1, 4, 16, or 72 hours. In some experiments, to generate superoxide (7, 15), Tlr4 KO mice were intranasally challenged with 0.32 mM xanthine (X) (Sigma-Aldrich, St. Louis, Mo.) with 50 mU xanthine oxidase (XO) (Sigma-Aldrich) in the presence or absence of RWPE. In some experiments, 1 hour before RWPE challenge, WT mice were treated with intranasal administration of 4 mg/kg body weight chemokine (C-X-C motif) receptor 2 (CXCR2) inhibitor SB225002 (Calbiochem, San Diego, Calif.) and challenged with RWPE and killed as described above.\n(§1) Bronchoalveolar lavage fluid (BALF) and histological examinations including PAS staining for mucin were performed as described previously (Sur et al., J Immunol 1996; 157(9):4173-4180). In some experiments, leukotriene B4 (LTB4), CXCL1/2, IL-5, IL-13, TSLP, and IL-33 in BALF were assayed using ELISA kits (R&D Systems, Minneapolis, Minn.)"}, "CXCR2 [2]": {"target": "T1, CXCR2", "test": "RWPE repeated-challenge model with CXCR2 inhibitor", "type": "in vivo", "details": "WT mice", "experimental": "WT mice or Tlr4 KO mice were sensitized by five intranasal doses of RWPE (100 μg/60 μl) on Days 0, 1, 2, 3, and 4. These mice were challenged with intranasal RWPE or PBS on Day 11 and killed on Day 14 (14). In addition, WT mice were sensitized by five intranasal doses of RWPE on Days 0, 1, 2, 3, and 4 with RWPE with or without the intranasal administration of 4 mg/kg body weight SB225002 (16) 1 hour before each intranasal dose of RWPE. The mice were challenged with intranasal RWPE on Day 11 and killed on Day 14 (14). In some experiments, Tlr4 KO mice were sensitized by five intranasal doses of RWPE on Days 0, 1, 2, 3, and 4 in the presence or absence of X+XO and challenged with intranasal RWPE in the presence or absence of X+XO on Day 11 and killed on Day 14 as described above (14). In some experiments, RWPE and negatively selected neutrophils derived from bone marrow of donor mice were repeatedly intranasally instilled in Tlr4 KO mice. The purity of neutrophils was assessed to be 99% by FACS. Tlr4 KO mice were intranasally administered neutrophils (4×10^6 neutrophils per mouse) 8 hours after intranasal instillation of RWPE on Days 0, 1, 2, 3, 4, and 11 and killed on Day 14 as described previously to evaluate allergic inflammation.\nas §1\nMucin production was assessed by two investigators who were blinded to the treatment groups using a modification of a method reported (Wild et al., 2000, J Immunol 2000; 164(5):2701-2710) on a subjective scale of 0, 1, 2, 3, and 4 corresponding to none, mild, moderate, marked, or severe mucin deposition, respectively. The data were expressed as mean of score recorded by two blinded investigators.\nRWPE-specific IgE was measured using a previously described procedure (Wild et al., J Immunol 2000; 164(5):2701-2710). Briefly 96-well plates were coated with 100 ug/ml of RWPE protein overnight. After washing and blocking, diluted sera from the mice treated as above were applied. The plates were incubated with biotin-conjugated […] (clone R35-72; BD Biosciences, San Jose, Calif.) for 2 hours at room temperature, washed and incubated with avidin-conjugated alkaline phosphatase. After washing, fluorometric values for each well were recorded after addition of AttoPhos substrate solution (Promega, Madison, Wis.)."}, "CXCR2 [3]": {"target": "T1, CXCR2", "test": "Ex vivo superoxide generation from BALF cells after RWPE challenge", "type": "in vivo", "details": "WT mice; 4 mg/kg intranasal 1 hour before RWPE; 16 hours after RWPE challenge", "experimental": "WT mice and Tlr4 KO mice were challenged with 100 μg of RWPE or PBS and sacrificed at 0.5 and 16 hours. Ex vivo superoxide generation by BALF cells was measured by a mixture of two probes to optimize sensitivity of detection of superoxide (luminol and Diogenes) (Yamazaki et al., Trop Med Health 2011; 39(2):41-45). In additional experiments, WT mice with intranasal administration of the CXCR2 inhibitor SB225002 (4 mg/kg body weight) 1 hour before RWPE challenge, and ex vivo superoxide generation from cells in BALF was quantified."}, "[4]": {"details": "4 mg/kg intranasal before each RWPE dose, vs vehicle"}}, "data": [{"compound": "Omalizumab: marketed drug cited for cat allergen exposure", "values": [{"measurement": "severity of acute airway obstruction and symptoms caused by exposure to cat allergen", "setting": "IgE", "result": "ameliorates"}]}, {"compound": "Cc1ccc(S(=O)(=O)/C=C/C#N)cc1", "note": "[BAY 11-7082]", "values": [{"measurement": "RWPE challenge-induced neutrophil recruitment into the airways", "setting": "NF-κB", "result": "decreased"}]}, {"compound": "O=C(Nc1ccc([N+](=O)[O-])cc1O)Nc1ccccc1Br", "note": "[SB225002]", "values": [{"measurement": "suppression of neutrophil recruitment into the lungs (BALF neutrophils)", "setting": "CXCR2 [1]; 4 mg/kg intranasal 1 hour before RWPE challenge, 16 hours after challenge", "result": 66, "unit": "%"}, {"measurement": "number of other cell types in BALF", "setting": "CXCR2 [1]; inhibitor before RWPE challenge, data not shown", "result": "did not alter"}, {"measurement": "RWPE-induced allergic inflammation", "setting": "CXCR2 [2]; 4 mg/kg intranasal 1 hour before each RWPE dose, compared with vehicle", "result": "attenuated"}, {"measurement": "decrease in BALF eosinophils", "setting": "CXCR2 [2]; [4]", "result": "50 to 80", "unit": "%"}, {"measurement": "decrease in BALF level of IL-5", "setting": "CXCR2 [2]; [4]", "result": "50 to 80", "unit": "%"}, {"measurement": "decrease in BALF level of IL-13", "setting": "CXCR2 [2]; [4]", "result": "50 to 80", "unit": "%"}, {"measurement": "decrease in BALF level of IL-33", "setting": "CXCR2 [2]; [4]", "result": "50 to 80", "unit": "%"}, {"measurement": "decrease in BALF level of TSLP", "setting": "CXCR2 [2]; [4]", "result": "50 to 80", "unit": "%"}, {"measurement": "decrease in BALF total inflammatory cells", "setting": "CXCR2 [2]; [4]", "result": "50 to 80", "unit": "%"}, {"measurement": "decrease in accumulation of mucin in epithelial cells", "setting": "CXCR2 [2]; [4]", "result": "50 to 80", "unit": "%"}, {"measurement": "decrease in serum RWPE-specific IgE", "setting": "CXCR2 [2]; [4]", "result": "50 to 80", "unit": "%"}, {"measurement": "RWPE-induced recruitment of superoxide-generating cells (ex vivo superoxide generation of BALF cells)", "setting": "CXCR2 [3]", "result": "blocked"}]}]}
